Laboratory results: PMC7926352, “Synthesis, Characterization and In Vitro Evaluation of Novel 5-Ene-thiazolo[3,2-b][1,2,4]triazole-6(5H)-ones as Possible Anticancer Agents” (Molecules, 2021)
Where two headings read alike, the source gives them in different places.

Assays:
UACC-257 = conditions: UACC-257, Melanoma
[1] = tested on: human embryonic kidney (HEK 293) cell lines; assay: MTT cytotoxicity assay; format: cell-based; conditions: HEK 293, MTT, 24 h
Method: Compounds 2h and 2i were also evaluated in vitro for their cytotoxic potential against human embryonic kidney (HEK 293) cell lines using the MTT assay.
The cytotoxicity of compounds 2h and 2i was analyzed in vitro by the MTT colorimetric assay on human embryonic kidney cell lines (HEK 293). HEK cell lines were cultured in DMEM supplemented with 10% fetal calf serum and 1% antibiotic-antimycotic mixture culture plates at 37 °C and 5% CO2-humidified incubator. Cells were seeded at a density of 1 × 10^5 cells/well in 96-well plate for 24 h; then, cells were washed and incubated in fresh medium. Compounds 2h and 2i were added at a concentration of 1, 5, 10, 25, and 50 μg/mL to triplicate wells and kept for 24 h, after which cells were washed three times with PBS. After washing, 20 μL of MTT solution (5 mg/mL stock solution) were added to each well, and cells were then incubated for an additional 4 h. The unreacted MTT dye and medium were aspirated off, and 100 μL of DMSO was added to each well to ensure solubilization of formazan crystals. The contents of the plates were mixed for 15 min to achieve complete solubilization of the formazan crystals, and the measurement of optical density was carried out at 570 nm with a micro plate spectrophotometer (MRX Microplate Reader, Dynatech Laboratories Inc., Chantilly, VA, USA) at 570 nm.

NCI-H226 = format: cell-based; conditions: NCI-H226, NSCLC
SNB-19 = format: cell-based; conditions: SNB-19, CNS Cancer
RXF 393 = conditions: RXF 393, Renal Cancer
MDA-MB-435 = conditions: MDA-MB-435, Breast Cancer
A498 = conditions: A498, Renal Cancer
MALME-3M = conditions: MALME-3M, Melanoma
COLO 205 = format: cell-based; conditions: COLO 205, Colon cancer
[2] = tested on: NSCLC (Non-small Cell Lung Cancer) cell lines; conditions: NSCLC subpanel
CNS Cancer cell lines = conditions: CNS Cancer subpanel
NCI-H522 = conditions: NCI-H522, NSCLC
Colon cancer cell lines = conditions: Colon cancer subpanel
SF-268 = conditions: SF-268, CNS Cancer
PC-3 = conditions: PC-3, Prostate Cancer
HOP-92 = conditions: HOP-92, NSCLC
MCF7 = conditions: MCF7, Breast Cancer
SK-MEL-5 = conditions: SK-MEL-5, Melanoma
UACC-62 = conditions: UACC-62, Melanoma
NCI-H460 = conditions: NCI-H460, NSCLC
MOLT-4 = conditions: MOLT-4, Leukemia
HCT-15 = conditions: HCT-15, Colon cancer
Breast Cancer cell lines = conditions: Breast Cancer subpanel
SK-MEL-28 = conditions: SK-MEL-28, Melanoma
HCC-2998 = conditions: HCC-2998, Colon cancer
[3] = read-out: LC50 (the source's name)
[4] = read-out: GI50, values range inside panel

Ethyl(Z)-4-(3-(4-chloro-2-((6-oxothiazolo[3,2-b][1,2,4]triazol-5(6H)-ylidene)methyl)phenyl)propanamido)benzoate [Compound 2i]
GI50 (UACC-257): 10.5 µM | TGI (UACC-257): 25.70 µM | IC50 [1]: 24.4 µM | GI50 (NCI-H226): 17 µM | LC50 (50% lethal concentration) (NCI-H226): 67.6 µM | TGI (NCI-H226): 33.11 µM | GI50 (SNB-19): 10.2 µM | TGI (SNB-19): 23.44 µM | CC50 (SNB-19; [3]): 52.5 µM | GI50 (RXF 393): 5.75 µM | TGI (RXF 393): 21.37 µM | GI50 (MDA-MB-435): 10.5 µM | TGI (MDA-MB-435): 25.11 µM | GI50 (A498): 17.4 µM | TGI (A498): 31.62 µM | GI50 (MALME-3M): 14.8 µM | TGI (MALME-3M): 28.18 µM | GI50 (COLO 205): 14.8 µM | TGI (COLO 205): 31.62 µM | CC50 (COLO 205; [3]): 67.6 µM | TGI, panel MG_MID [2]: 30.03 µM | TGI, values range inside panel [2]: 25.70 to 39.81 µM | GI50 ([2]; read-out: GI50, panel MG_MID): 14.1 µM | GI50 [2, 4]: 10.2 to 19.5 µM | TGI, panel MG_MID (CNS Cancer cell lines): 27.42 µM | TGI, values range inside panel (CNS Cancer cell lines): 19.05 to 44.66 µM | GI50 (CNS Cancer cell lines; read-out: GI50, panel MG_MID): 9.85 µM | GI50 (CNS Cancer cell lines; [4]): 6.02 to 13.2 µM | GI50 (NCI-H522): 11.7 µM | TGI (NCI-H522): 28.84 µM | TGI, panel MG_MID (Colon cancer cell lines): 26.51 µM | TGI, values range inside panel (Colon cancer cell lines): 21.37 to 33.11 µM | GI50 (Colon cancer cell lines; read-out: GI50, panel MG_MID): 12.4 µM | GI50 (Colon cancer cell lines; [4]): 9.55 to 16.6 µM | GI50 (SF-268): 6.02 µM | TGI (SF-268): 28.84 µM | GI50 (PC-3): 11.2 µM | TGI (PC-3): 38.01 µM | GI50 (HOP-92): 10.2 µM | TGI (HOP-92): 29.51 µM | GI50 (MCF7): 5.12 µM | TGI (MCF7): 19.05 µM | GI50 (SK-MEL-5): 10.5 µM | TGI (SK-MEL-5): 21.87 µM | GI50 (UACC-62): 13.8 µM | TGI (UACC-62): 26.30 µM | GI50 (NCI-H460): 13.5 µM | TGI (NCI-H460): 27.54 µM | GI50 (MOLT-4): 18.2 µM | TGI (MOLT-4): 52.48 µM | GI50 (HCT-15): 13.8 µM | TGI (HCT-15): 27.54 µM | TGI, panel MG_MID (Breast Cancer cell lines): 30.29 µM | GI50 (Breast Cancer cell lines; read-out: GI50, panel MG_MID): 9.72 µM | GI50 (Breast Cancer cell lines; [4]): 3.54 to 21.9 µM | GI50 (SK-MEL-28): 12 µM | TGI (SK-MEL-28): 23.98 µM | GI50 (HCC-2998): 16.6 µM | TGI (HCC-2998): 33.11 µM
